Data from patent publication US8952024B2, “Herbicidal pyrimidone derivatives” (E I du Pont de Nemours and Company, priority 2009, dated 2015).

Experiments:
Test in all cases: Test D pre-/postemergence plant response
Type in all cases: in vivo
[1] = test system: barnyardgrass (Echinochloa crus-galli)
Procedure, shortened: (§1)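 Each species was planted in mixed loam and sand, treated either before emergence or at the 1- to 4-leaf stage, then kept under glass for 14 to 21 days. Plant response was scored by eye from 0 to 100 relative to controls; a dash marks no result.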

[2] = test system: bluegrass (annual bluegrass, Poa annua)
Procedure, shortened: as §1

[3] = test system: dallisgrass (Paspalum dilatatum)
Procedure, shortened: as §1

[4] = test system: dayflower (Virginia (VA) dayflower, Commelina virginica)
Procedure, shortened: as §1

[5] = test system: goosegrass (Eleusine indica)
Procedure, shortened: as §1

[6] = test system: green foxtail (Setaria viridis)
Procedure, shortened: as §1

[7] = test system: itchgrass (Rottboellia cochinchinensis)
Procedure, shortened: as §1

[8] = test system: johnsongrass (Sorghum halepense)
Procedure, shortened: as §1

kochia (Kochia scoparia) = test system: kochia (Kochia scoparia)
Procedure, shortened: as §1

[9] = test system: mallow (common mallow, Malva sylvestris)
Procedure, shortened: as §1

[10] = test system: prickly sida (Sida spinosa)
Procedure, shortened: as §1

[11] = test system: ragweed (common ragweed, Ambrosia elatior)
Procedure, shortened: as §1

[12] = test system: sandbur (southern sandbur, Cenchrus echinatus)
Procedure, shortened: as §1

[13] = test system: spanishneedles (Bidens bipinnata)
Procedure, shortened: as §1

[14] = Postemergence, 16 g ai/ha, scale 0 to 100
[15] = Postemergence, 31 g ai/ha, scale 0 to 100 (0 no effect, 100 complete control)
[16] = Postemergence, 125 g ai/ha, scale 0 to 100 (0 no effect, 100 complete control)
[17] = Postemergence, 62 g ai/ha, scale 0 to 100 (0 no effect, 100 complete control)
[18] = Preemergence, 16 g ai/ha, scale 0 to 100, 0 no effect, 100 complete control
[19] = Preemergence, 31 g ai/ha, scale 0 to 100 (0 no effect, 100 complete control)
[20] = Preemergence, 62 g ai/ha, scale 0 to 100
[21] = Preemergence, 125 g ai/ha, scale 0 to 100
[22] = Postemergence, 31 g ai/ha, scale 0 to 100

In the case of `O=C1CCCC(O)=C1C(=O)c1cnc(-c2cccnc2)n(-c2ccccc2)c1=O` [Compound 113, 5-[(2-hydroxy-6-oxo-1-cyclohexen-1-yl)carbonyl]-3-phenyl-2-(3-pyridinyl)-4(3H)-pyrimidone], the “Plant response rating, Barnyardgrass” value [1, 14] was 65, the “Plant response rating, Barnyardgrass” value [1, 15] was 75 and the “Plant response rating, Barnyardgrass” value [1, 16] was 80. For the same molecule, the “Plant response rating, Barnyardgrass” value [1, 17] was 80, the “Plant response rating, Barnyardgrass” value [1, 18] was 0 and the “Plant response rating, Barnyardgrass” value [1, 19] was 0. For the same molecule, the “Plant response rating, Barnyardgrass” value [1, 20] was 0, the “Plant response rating, Barnyardgrass” value [1, 21] was 35 and the “Plant response rating, Bluegrass” value [2, 14] was 0. The “Plant response rating, Bluegrass” value [2, 15] was 0, the “Plant response rating, Bluegrass” value [2, 16] was 0 and the “Plant response rating, Bluegrass” value [2, 17] was 0. For the same molecule, the “Plant response rating, Bluegrass” value [2, 18] was 0, the “Plant response rating, Bluegrass” value [2, 19] was 0 and the “Plant response rating, Bluegrass” value [2, 20] was 0. The “Plant response rating, Bluegrass” value [2, 21] was 0, the “Plant response rating, Dallisgrass” value [3, 14] was 10 and the “Plant response rating, Dallisgrass” value [3, 22] was 10. The “Plant response rating, Dallisgrass” value [3, 16] was 70, the “Plant response rating, Dallisgrass” value [3, 17] was 60 and the “Plant response rating, Dallisgrass” value [3, 18] was 5. For the same molecule, the “Plant response rating, Dallisgrass” value [3, 19] was 50, the “Plant response rating, Dallisgrass” value [3, 20] was 50 and the “Plant response rating, Dallisgrass” value [3, 21] was 100. For the same molecule, the “Plant response rating, Dayflower, VA” value [4, 14] was 20, the “Plant response rating, Dayflower, VA” value [4, 22] was 40 and the “Plant response rating, Dayflower, VA” value [4, 16] was 60. The “Plant response rating, Dayflower, VA” value [4, 17] was 60, the “Plant response rating, Dayflower, VA” value [4, 18] was 50 and the “Plant response rating, Dayflower, VA” value [4, 19] was 50. The “Plant response rating, Dayflower, VA” value [4, 20] was 50, the “Plant response rating, Dayflower, VA” value [4, 21] was 65 and the “Plant response rating, Goosegrass” value [5, 14] was 40. For the same molecule, the “Plant response rating, Goosegrass” value [5, 22] was 50, the “Plant response rating, Goosegrass” value [5, 16] was 65 and the “Plant response rating, Goosegrass” value [5, 17] was 65. For the same molecule, the “Plant response rating, Goosegrass” value [5, 18] was 25, the “Plant response rating, Goosegrass” value [5, 19] was 25 and the “Plant response rating, Goosegrass” value [5, 20] was 75. For the same molecule, the “Plant response rating, Goosegrass” value [5, 21] was 95, the “Plant response rating, Foxtail, Green” value [6, 14] was 25 and the “Plant response rating, Foxtail, Green” value [6, 22] was 60. The “Plant response rating, Foxtail, Green” value [6, 16] was 90, the “Plant response rating, Foxtail, Green” value [6, 17] was 70 and the “Plant response rating, Foxtail, Green” value [6, 18] was 0. For the same molecule, the “Plant response rating, Foxtail, Green” value [6, 19] was 0, the “Plant response rating, Foxtail, Green” value [6, 20] was 0 and the “Plant response rating, Foxtail, Green” value [6, 21] was 20. For the same molecule, the “Plant response rating, Itchgrass” value [7, 14] was 0, the “Plant response rating, Itchgrass” value [7, 22] was 10 and the “Plant response rating, Itchgrass” value [7, 16] was 70. The “Plant response rating, Itchgrass” value [7, 17] was 65, the “Plant response rating, Itchgrass” value [7, 18] was 0 and the “Plant response rating, Itchgrass” value [7, 19] was 0. For the same molecule, the “Plant response rating, Itchgrass” value [7, 20] was 0, the “Plant response rating, Itchgrass” value [7, 21] was 0 and the “Plant response rating, Johnsongrass” value [8, 14] was 40. The “Plant response rating, Johnsongrass” value [8, 22] was 40, the “Plant response rating, Johnsongrass” value [8, 16] was 75 and the “Plant response rating, Johnsongrass” value [8, 17] was 65. The “Plant response rating, Johnsongrass” value [8, 18] was 0, the “Plant response rating, Johnsongrass” value [8, 19] was 0 and the “Plant response rating, Johnsongrass” value [8, 20] was 10. The “Plant response rating, Johnsongrass” value [8, 21] was 10, the “Plant response rating, Kochia” value (kochia (Kochia scoparia); [14]) was 25 and the “Plant response rating, Kochia” value (kochia (Kochia scoparia); [22]) was 40. For the same molecule, the “Plant response rating, Kochia” value (kochia (Kochia scoparia); [16]) was 50, the “Plant response rating, Kochia” value (kochia (Kochia scoparia); [17]) was 50 and the “Plant response rating, Kochia” value (kochia (Kochia scoparia); [19]) was 70. For the same molecule, the “Plant response rating, Kochia” value (kochia (Kochia scoparia); [20]) was 100, the “Plant response rating, Kochia” value (kochia (Kochia scoparia); [21]) was 100 and the “Plant response rating, Mallow” value [9, 14] was 0. For the same molecule, the “Plant response rating, Mallow” value [9, 22] was 0, the “Plant response rating, Mallow” value [9, 16] was 20 and the “Plant response rating, Mallow” value [9, 17] was 0. The “Plant response rating, Mallow” value [9, 18] was 0, the “Plant response rating, Mallow” value [9, 19] was 5 and the “Plant response rating, Mallow” value [9, 20] was 5. For the same molecule, the “Plant response rating, Mallow” value [9, 21] was 90, the “Plant response rating, Prickly Sida” value [10, 14] was 50 and the “Plant response rating, Prickly Sida” value [10, 22] was 60. For the same molecule, the “Plant response rating, Prickly Sida” value [10, 16] was 70, the “Plant response rating, Prickly Sida” value [10, 17] was 70 and the “Plant response rating, Prickly Sida” value [10, 18] was 0. For the same molecule, the “Plant response rating, Prickly Sida” value [10, 19] was 35, the “Plant response rating, Prickly Sida” value [10, 20] was 70 and the “Plant response rating, Prickly Sida” value [10, 21] was 90. The “Plant response rating, Ragweed” value [11, 14] was 70, the “Plant response rating, Ragweed” value [11, 22] was 70 and the “Plant response rating, Ragweed” value [11, 16] was 80. The “Plant response rating, Ragweed” value [11, 17] was 75, the “Plant response rating, Ragweed” value [11, 18] was 0 and the “Plant response rating, Ragweed” value [11, 19] was 50. The “Plant response rating, Ragweed” value [11, 21] was 98, the “Plant response rating, Sandbur” value [12, 14] was 5 and the “Plant response rating, Sandbur” value [12, 22] was 10. The “Plant response rating, Sandbur” value [12, 16] was 60, the “Plant response rating, Sandbur” value [12, 17] was 60 and the “Plant response rating, Sandbur” value [12, 18] was 0. For the same molecule, the “Plant response rating, Sandbur” value [12, 19] was 0, the “Plant response rating, Sandbur” value [12, 21] was 90 and the “Plant response rating, Spanishneedles” value [13, 14] was 35. For the same molecule, the “Plant response rating, Spanishneedles” value [13, 22] was 35, the “Plant response rating, Spanishneedles” value [13, 16] was 60 and the “Plant response rating, Spanishneedles” value [13, 17] was 50. The “Plant response rating, Spanishneedles” value [13, 18] was 0, the “Plant response rating, Spanishneedles” value [13, 19] was 0 and the “Plant response rating, Spanishneedles” value [13, 21] was 95.
